# Laboratory results: patent US7179800B2 (priority 2002, dated 2007)
# Several values for one entry are separate records, joined by “and”; a condition that tells them apart may be missing. Equal entries are not always repeated.
# Experiments:
# Male ICR mice [1] = assay: Suppression of spontaneous activity (SA) in mice; assay type: in vivo, mouse
# Experimental: (§1) Male ICR mice (25–32 g), obtained from Harlan (Dublin, Va.), were housed in groups of five. All animals were kept in a temperature-controlled (20–22° C.) environment with a 12-hour light-dark cycle (lights on at 7 a.m.). Separate mice were used for testing each drug dose in the in vivo behavioral procedures. Brain tissue for binding studies was obtained from male Sprague-Dawley rats (150–200 g) purchased from Harlan Laboratories (Dublin, Va.).
# (§2) Measurement of spontaneous activity in mice occurred in standard activity chambers interfaced with a Digiscan Animal Activity Monitor (Omnitech Electronics, Inc., Columbus, Ohio). A standard tail-flick apparatus and a digital thermometer (Fisher Scientific, Pittsburgh, Pa.) were used to measure antinociception and rectal temperature, respectively
# (§3) Resorcinols were synthesized in our labs (Organix, Inc., Woburn, Mass.) according to the procedure specified below and were suspended in a vehicle of absolute ethanol, Emulphor-620 (Rhone-Poulenc, Inc., Princeton, N.J.), and saline in a ratio of 1:1:18. Drugs were administered to the mice intravenously (i.v.) in the tail vein at a volume of 0.1 ml/10 g.
# (§4) Prior to testing in the behavioral procedures, mice were acclimated to the experimental setting (ambient temperature 22–24° C.) overnight. Pre-injection control values were determined for rectal temperature and tail-flick latency (in sec). […] Tail-flick latency was measured at 20 min post-injection. Maximum latency of 10 sec was used. Antinociception was calculated as percent of maximum possible effect {% MPE=[(test−control latency)/(10-control)]×100}. Control latencies typically ranged from 1.5 to 4.0 sec. At 30 min post-injection, rectal temperature was measured This value was expressed as the difference between control temperature (before injection) and temperatures following drug administration (° C.). Different mice (n=5–6 per dose) were tested for each dose of each compound. Each mouse was tested in each of the 3 procedures.
# (§5) Based on data obtained from numerous previous studies with cannabinoids, maximal cannabinoid effects in each procedure were estimated as follows: 90% inhibition of spontaneous activity, 100% MPE in the tail flick procedure, and −6° C. change in rectal temperature. ED50's were defined as the dose at which half maximal effect occurred. For drugs that produced one or more cannabinoid effect, ED50's were calculated separately using least-squares linear regression on the linear part of the dose-effect curve for each measure in the mouse tetrad, plotted against log10 transformation of the dose. For the purposes of potency comparison, potencies were expressed as μmol/kg.
# Male ICR mice [2] = assay: Tail-flick antinociception (TF, % MPE) in mice; assay type: in vivo, mouse; conditions: for T.F. % effect at dose: Table 6, @ 30 (mg/kg)
# Experimental: as §1, §2, §3, §4, §5
# Male ICR mice [3] = assay: Change in rectal temperature (RT) in mice; assay type: in vivo, mouse; conditions: for R.T. effect at dose: Table 6, @ 30 (mg/kg)
# Experimental: as §1, §2, §3, §4, §5
# CB2 receptor = target: T1, CB2 receptor (Homo sapiens, UniProt P34972); assay: CB2 binding procedure: displacement of [3H]CP-55,940 from membranes of transfected CHO cells; conditions: for CB1/CB2 (ratio of Ki): CB1 Ki divided by CB2 Ki; for Ki: means ± SEM, [3H]CP-55,940, transfected CHO cell membranes, read-out: Ki (nM) CB2
# T1 construct: expressed in transfected cells; host or cells: CHO cells, G418-selected transfected line
# Experimental: Membranes for CB2 binding were obtained from CHO cells. The transfected cell line was maintained in Dublecco's Modified Eagle Medium (Gibco BRL, Grand Island, N.Y.) with 10% fetal clone II (HyClone Laboratories, Inc., Logan, Utah) plus 0.3 to 0.5 mg/ml G418 (to maintain selective pressure) under 5% CO2 at 37% C. Cells were harvested with 1 mM EDTA in phosphate-buffered saline and were centrifuged at 1000×g for 5 min at 4% C. The supernatant was saved and the P1 pellet was resuspended in centrifugation buffer. Homogenization and centrifugation were repeated twice and the combined supernatant fractions were centrifuged at 40,000×g for 30 min at 4% C. The P2 pellet was resuspended in centrifugation buffer 2 (Tris HCl, 50 mM; EDTA, 1 mM; and MgCl2, 3 mM, pH 7.4) to a protein concentration of approximately 2 mg/ml. Protein concentrations were determined by the method of Bradford (1976) using Bio-Rad Protein Assay (Bio-Rad, Richmond, Calif.) and BSA standards (fatty acid free, Sigma Chemical Co., St. Louis, Mo.). The membrane preparation was divided into amounts convenient for binding assays and frozen rapidly in dry ice and stored at −80% C.
# Binding was initiated by the addition of 50 μg of quickly thawed P2 membranes to test tubes containing [^3H]CP-55,940 (final reaction concentration 0.5 nM), an appropriate concentration of unlabeled CP-55,940 or test drug, and sufficient quantity of assay buffer (50 mM Tris-HCl, 1 mM EDTA, 3 mM MgCl2, 5 mg/ml bovine serum albumin, pH 7.4) to bring the total incubation volume to 0.5 ml. Concentration of [^3H]CP-55,940 in saturation studies ranged from 50 to 10,000 pM. Nonspecific binding was determined by the addition of 1 μM unlabeled CP-55,940. CP-55,940 and all cannabinoid analogs were prepared by suspension in assay buffer from a 1 mg/ml ethanolic stock without evaporation of the ethanol (final concentration of no more than 0.4%). In competition studies, analog concentrations ranged from 0.1 nM to 10 μM. After incubation at 30% C for 1 hr, binding was terminated by the addition of 2 ml of ice-cold wash buffer (50 mM Tris-HCl and 1 mg/ml BSA) and vacuum filtration through pre-treated filters in a 12-well sampling manifold (Millipore, Bedford, Mass.). Reaction vessels were washed once with 2 ml of ice-cold wash buffer. Filters were placed into 7-ml plastic scintillation vials (RPI Corp., Mount Prospect, Ill.) with 4 ml of Budget-Solve (RPI Corp.). After shaking for 30 min, the radioactivity present was determined by liquid scintillation spectrometry. Three reaction vessels were used for each drug concentration in each assay. The results represent the combined data of three independent experiments. All assays were performed in siliconized test tubes, which were prepared by air drying (12 hr) inverted borosilicate tubes after two rinses with a 0.1% solution of AquaSil (Pierce, Rockford, Ill.). The GF/C glass-fiber filters (2.4 cm, Baxter, McGaw Park, Ill.) were pre-treated in a 0.1% solution of pH 7.4 polyethylenimine (Sigma Chemical Co.) for at least 6 hr.
# (§6) In addition, multiple linear regression was used to calculate the overall degree of relationship between CB1 binding affinity and potency in the mouse measures for all active cannabinoids. […] Ki values for CB1 and CB2 binding were obtained from Scatchard displacement analysis as determined via EBDA program of the KELL software package (Biosoft, Milltown, N.J.).
# CB1 receptor = CB1 receptor (Rattus norvegicus, UniProt P20272); assay: CB1 binding procedure: displacement of [3H]CP 55,940 from rat whole-brain P2 membranes; parameters: whole brain was homogenized and centrifuged; from tissue; host or cells: rat whole brain, P2 membrane fraction; conditions: for Ki: means ± SEM, [3H]CP 55,940, rat brain membranes, read-out: Ki (nM) CB1
# Experimental: as §1
# The methods used for tissue preparation and binding have been described previously (Compton et al., 1993) and are similar to those described by Devane et al. (1988). All assays, as described briefly below, were performed in triplicate, and the results represent the combined data from three to six individual experiments.
# Following decapitation and rapid removal of the brain, whole brain was homogenized and centrifuged. The resulting pellet was termed P1. The supernatant was saved and combined with the two subsequent supernatants obtained from washing of the P1 pellet. The combined supernatant fractions were centrifuged, resulting in the P2 pellet. After further incubation and centrifuging, this pellet was resuspended in assay buffer to a protein concentration of approximately 2 mg/ml. The membrane preparation was quickly frozen in a bath solution of dry ice and 2-methylbutane (Sigma Chemical Co., St. Louis, Mo.), then stored at −80° C. for no more than 2 weeks. Prior to performing a binding assay an aliquot of frozen membrane was rapidly thawed and protein values determined by the method of Bradford (1976).
# Binding was initiated by the addition of 150 μg of P2 membrane to test tubes containing 1 nM of [^3H] CP 55,940 (79 Ci/mmol) and a sufficient quantity of buffer to bring the total incubation volume to 1 ml. Nonspecific binding was determined by the addition of 1 μM unlabeled CP 55,940. Following incubation at 30° C. for 1 hr, binding was terminated by addition of ice cold buffer and vacuum filtration through pretreated filters in a 12-well sampling manifold (Millipore, Bedford, Mass.). After washing, filters were placed into plastic scintillation vials (Packard, Downer Grove, Ill.) and shaken. The quantity of radioactivity present was determined by liquid scintillation spectrometry.
# as §6
# [4] = relative to the comparator analog
# T1 sequence (P34972 whole entry): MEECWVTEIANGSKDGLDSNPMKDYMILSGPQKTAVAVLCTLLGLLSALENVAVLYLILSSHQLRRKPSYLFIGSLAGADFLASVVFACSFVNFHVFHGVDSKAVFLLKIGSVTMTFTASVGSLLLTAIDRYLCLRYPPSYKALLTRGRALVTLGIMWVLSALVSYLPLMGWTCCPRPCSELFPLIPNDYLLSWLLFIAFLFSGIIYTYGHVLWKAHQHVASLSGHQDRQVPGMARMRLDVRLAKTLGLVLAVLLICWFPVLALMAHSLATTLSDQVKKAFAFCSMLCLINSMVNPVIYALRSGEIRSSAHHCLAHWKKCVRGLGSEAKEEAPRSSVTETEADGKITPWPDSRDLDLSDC
# CB1 receptor, sequence (P20272 whole entry): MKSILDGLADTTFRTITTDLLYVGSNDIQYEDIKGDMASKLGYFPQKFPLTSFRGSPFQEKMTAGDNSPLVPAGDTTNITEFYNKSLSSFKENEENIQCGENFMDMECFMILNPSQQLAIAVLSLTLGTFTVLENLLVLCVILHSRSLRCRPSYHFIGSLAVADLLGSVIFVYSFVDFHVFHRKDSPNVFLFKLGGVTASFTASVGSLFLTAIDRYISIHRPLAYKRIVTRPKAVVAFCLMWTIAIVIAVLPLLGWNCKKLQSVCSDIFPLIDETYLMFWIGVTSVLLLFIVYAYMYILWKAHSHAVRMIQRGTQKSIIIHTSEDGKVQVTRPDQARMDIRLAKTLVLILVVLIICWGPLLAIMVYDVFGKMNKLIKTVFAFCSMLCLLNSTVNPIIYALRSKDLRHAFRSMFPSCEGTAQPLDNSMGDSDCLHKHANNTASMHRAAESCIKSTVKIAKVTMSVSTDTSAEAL
SMILES,CB1/CB2 (ratio of Ki) (CB2 receptor),Ki (CB2 receptor),Ki (CB1 receptor) [nM],further results
"C=C(C)[C@@H]1CCC(C)=C[C@H]1c1c(C)cc(O)cc1O (single isomer, unassigned) [O-1602]",–,–,–,"S.A % effect at dose, stim. (Male ICR mice [1]; Table 6, stimulation, @ 30 (mg/kg)): 66% stim.; T.F. % effect at dose (Male ICR mice [2]): 0 @ 30%; R.T. effect at dose (Male ICR mice [3]): 0.3 @ 30 °C"
"CCCCCCC(C)(C)c1cc(OC)c(C2(O)CCC(O)CC2)c(OC)c1 (single isomer, unassigned) [O-2116A]",21,190 ± 17 nM,3930 ± 483,–
"CCCCCCC(C)(C)c1cc(OC)c(C2(O)CCC(O)CC2)c(OC)c1 (single isomer, unassigned) [O-2117B]",–,1560 ± 70 nM,> 10000,–
"CCCCCCC(C)(C)c1cc(OC)c(C2(O)CCCC(C)C2)c(OC)c1 (single isomer, unassigned; isomer 1) [O-1966A, 1-(4-(1,1-Dimethylheptyl-2,6-dimethoxy-phenyl)-3-methyl-cyclohexanol isomer 1]",220,22.5 nM and 23 nM,5060 ± 984,CB2 selectivity (CB2 receptor): 225 fold; T.F. % effect at dose (Male ICR mice [2]): 5.1 @ 30%; R.T. effect at dose (Male ICR mice [3]): 0.5 @ 30 °C
"CCCCCCC(C)(C)c1cc(OC)c(C2CCOCC2)c(OC)c1 [O-1964, 4-(4-(1,1-Dimethylheptyl)-2,6-dimethoxy-phenyl)-tetrahydro-pyran]",–,911 ± 116 nM,> 10000,fold decrease in CB2 affinity (CB2 receptor; [4]): ~2 fold; T.F. % effect at dose (Male ICR mice [2]): 30% @ 30
"CCCCCCC(C)(C)c1cc(OC)c(C2=CCOCC2)c(OC)c1 [O-1965, 4-(4-(1,1-Dimethylheptyl)-2,6-dimethoxy-phenyl)-3,6-dihydro-2H-pyran]",–,> 10000 nM,> 10000,–
"CCCCCCc1ccc(O)c(C2CCCCC2)c1O [O-2010, 2-Cyclohexyl-4-hexyl resorcinol]",–,–,9510 ± 332,"SA percent effect at the highest dose (Male ICR mice [1]; mice, i.v., 30 mg/kg, % inhibition of activity of vehicle group): −18%(30); T.F. % effect at dose (Male ICR mice [2]): 9.0% @ 30; TF percent effect (% MPE) at the highest dose (Male ICR mice [2]; mice, i.v., 30 mg/kg): 9%(30); RT effect at the highest dose (change in rectal temperature) (Male ICR mice [3]; mice, i.v., 30 mg/kg): −0.4(30) °C; fold decrease in CB1 affinity (CB1 receptor; [4]): 865 fold"
CCCCCCC(C)(C)c1cc(OC)c(C2(O)CCCC(C)(C)C2)c(OC)c1 (centres unmarked) [O-2068],47,161 ± 24 nM,7510 ± 721,–
CCCCCCC(C)(C)c1cc(OC)c(C2(O)CCCCC2)c(OC)c1 [O-2072],55,105 ± 19 nM,5820 ± 662,–
CCCCCCC(C)(C)c1cc(OCC)c(C2(O)CCCC(C)C2)c(OCC)c1 (centres unmarked) [O-2090],10,858 ± 43 nM,8810 ± 422,–
"CCCCCCC(C)(C)c1cc(OC)c(C2(O)CCCCCC2)c(OC)c1 [O-2091, 1-(4-(1,1-Dimethylheptyl)-2,6-dimephenyl)-cycloheptan-1-ol]",50,64 ± 8 nM,3200 ± 141,fold increase in CB2 affinity (CB2 receptor; [4]): ~2 fold
"CCCCCCC(C)(C)c1cc(OC)c(C2(O)CCC3(CC2)OCCO3)c(OC)c1 [O-2092, 8-(4-(1,1-Dimethylheptyl)-2,6-dimphenyl)-1,4-dioxaspiro(4,5)decan-]",36,126 ± 12 nM,4580 ± 312,–
"CCCCCCC(C)(C)c1cc(OC)c(C2=CCC(=O)CC2)c(OC)c1 [O-2114, 4-(4-(1,1-O-methyl-heptyl)-2,6-dimethoxy-phenyl)-cyclohex-3-enone]",5,1770 ± 184 nM,8440 ± 954,–
CCCCCCC(C)(C)c1cc(OC)c(C2(O)CCC(=O)CC2)c(OC)c1 [O-2115],13,346 ± 49 nM,4570 ± 173,–
CCCCCCC(C)(C)c1cc(OC)c(C2(O)CC(C)CC(O)C2)c(OC)c1 (centres unmarked) [O-2121],20,101 ± 14 nM,1990 ± 77,–
"COc1cc(C)cc(OC)c1C1(O)CCCC(C)(C)C1 (centres unmarked) [O-2139, 1-(2,6-Dimethyoxy-methyl-phenyl)-3,3-dimethyl-cyclo-hexanol]",–,> 10000 nM,> 10000,–
